From patent US7022315B2, “Administration of a thiol-based chemoprotectant compound” (Oregon Health & Science University, priority 2000, dated 2006)
Marks after values point to notes of the source that are not given here.

How the values were obtained:
[1] = test system: cultured tumor cells; assay: Paclitaxel cytotoxicity with BSO and NAC (WST); assay type: cell-based
[2] = test system: GM294 human fibroblasts; assay: Cytoenhancement and chemoprotection in fibroblasts, WST assay; assay type: cell-based; conditions: independent of BSO treatment; 1000 μg/ml
Method: Cytotoxicity was assessed in GM294 human fibroblasts, 1×10^4 cells per well in 96 well plates, using the WST colorometric assay. […] Data are expressed as the percentage of live cells compared to control samples (without chemotherapy) and each point represents the mean±s.d. of 4 wells.

[3] = test system: B.5 LX-1 cells; assay: In situ TUNEL staining for DNA fragmentation; assay type: cell-based; conditions: melphalan 10 μg/ml, N-acetylcysteine 1000 μg/ml
Method: FIGS. 7A and 7B show the effect of cytoenhancement and chemoprotection on apoptosis. […] Apoptosis was assessed in cultured LX-1 SCLC cells pretreated for 18 hours with or without 100 μM BSO. The experimental conditions were no addition (open bars), melphalan (10 μg/ml, striped bars) or melphalan (10 μg/ml) plus N-acetylcysteine (1000 μg/ml) (cross hatched bars) for 20 h prior to harvest. Caspase-2 activity is expressed as percentage activity in untreated control samples (mean±standard deviation, n=3). TUNEL staining is expressed as the percentage of cells showing positive staining.
Apoptosis was evaluated by measuring Caspase-2 enzymatic activity and by in situ TUNEL staining. […] The increase in caspase activity was variable between experiments and ranged from 50–100% at 7–8 h to 250–600% at 20–24 h after treatment with melphalan. […] In the experiment shown in FIG. 7B, TUNEL staining after melphalan treatment was positive in 29 of 3643 cells, compared to 7 of 4395 cells in the untreated control, and BSO treatment prior to melphalan increased the positive staining to 800 of 1699 cells. […] In both assays, activity was maximal with low doses of melphalan, or with a 1 hour pulse treatment with the doses used in the cytotoxicity assays.

[4] = test system: B.5 LX-1 cells; assay: cells
Method: FIGS. 4A and 4B show cytoenhancement and chemoprotection. […] Cytotoxicity was assessed in cultured LX-1 SCLC cells, 1×10^4 cells per well in 96 well plates, using the WST colorometric assay. BSO cytoenhancement consisted of preincubation at 100 μM BSO for 18 hours. The chemoprotective agent was added immediately after chemotherapy. The experimental conditions were dose/responses for chemotherapy (carboplatin or etoposide phosphate) alone (m), BSO cytoenhancement ( ? ), N-acetylcysteine rescue, (1000 μg/ml N-acetylcysteine, n), or BSO cytoenhancement and N-acetylcysteine rescue (u). Data are expressed as the percentage of live cells compared to untreated control samples without chemotherapy and each point represents the mean±standard deviation of 4 wells.
The effects of BSO cytoenhancement and thiol chemoprotection on the dose/response relationships for cytotoxicity of the alkylating chemotherapeutics were evaluated in the B.5 LX-1 cells. BSO cytoenhancement consisted of preincubation with 100 μM BSO for about 18–24 hours prior to addition of chemotherapy, and rescue consisted of 1000–2000 μg/ml of thiol chemoprotectant added immediately after chemotherapy.
Cytoenhancement and chemoprotection against non-alkylating chemotherapeutic agents was also evaluated.
Half-maximal cytotoxic concentrations (EC50) are expressed as μg/ml. Each EC50 measurement comprised 6 concentrations with 4 wells per concentration, and each dose response was performed in triplicate for each chemotherapeutic agent. Data are reported as the mean±pooled standard deviation for three independent experiments. P values are shown for the reduction in EC50 by BSO treatment (*=P<0.05, **=P<0.01, ***=P<0.001).

[5] = administered intravenously; cited from earlier work
[6] = test system: rats; assay: Protection against chemotherapy-induced myelosuppression, nadir blood counts; assay type: in vivo, rat; conditions: for White Cell Nadir: mean ± SE
Method: FIGS. 10A–10D show the results of tests on chemoprotection for chemotherapy-induced myelosuppression. Rats received tri-drug chemotherapy (Carboplatin 200 mg/m2, etoposide phosphate 100 mg/m2, melphalan 10 mg/m2), with (triangles, squares) or without (circles) chemoprotection. Blood counts were determined prior to chemotherapy, at the blood nadir (6 days), and in the recovery phase (9 days after treatment). Chemoprotection was with NAC (1200 mg/kg) administered via aortic infusion 30 min prior to chemotherapy (triangles) or NAC prior to chemotherapy and STS (8 g/m2) immediately after chemotherapy (squares). In FIG. 10B and FIG. 10D animals received BSO (10 mg/kg i.p.×3 d) prior to treatment with chemotherapy. […] Significant difference from the no protectant groups were determined by Wilcoxon/Kruskal-Walliis rank sums tests (*p<0.05, **p<0.01).
Chemoprotection against chemotherapy-induced bone marrow toxicity was determined in BSO treated and untreated animals given i.a. carboplatin, etoposide phosphate, and melphalan. NAC with or without STS was administered either about 30 minutes prior to chemotherapy or immediately after chemotherapy, and was administered either i.v. or by aortic infusion.

[7] = test system: rat
Method: FIG. 9 represents tests showing the effect of NAC route of administration on mortality+/−BSO. A Kaplan-Meier product limit analysis was used to evaluate the mortality due to chemoprotection with NAC. Rats were treated with or without BSO (10 mg/kg i.p. b.i.d.×3, black bars) prior to treatment with chemotherapy (Carboplatin 200 mg/m2, etoposide phosphate 100 mg/m2, melphalan 10 mg/m2). Chemoprotection consisted of NAC (1200 mg/m2) or NAC (1000 mg/m2) plus STS (8 g/m2) given either i.v. (n=17 BBSO, n=8+BSO) or by aortic infusion (n=19 BBSO, n=28+BSO).
A dose escalation of NAC was performed in the rat.
The toxicity of NAC was determined when infused for bone marrow protection.

[8] = Table 7, no BSO, aortic infusion post chemo
[9] = Table 7, no BSO, i.v. 30 min prior
[10] = Table 7, no BSO, i.v. post chemo
[11] = Table 8, BSO pretreatment, aortic infusion post chemo

SMILES: CC(=O)N[C@@H](CS)C(=O)O [NAC, N-acetylcysteine]
- effect on BSO-enhanced paclitaxel toxicity [1]: completely reversed the enhanced toxicity
- effect on the dose response for paclitaxel alone [1]: did not change the dose response
- chemoprotection against melphalan, cisplatin and carboplatin cytotoxicity [2]: partially to completely chemoprotective
- effect on melphalan-induced TUNEL staining [3]: reduced
- effect on BSO-enhanced taxol cytotoxicity [4]: completely reversed
- brain levels [5]: < 5%
- White Cell Nadir ([6]; Table 7, no BSO, aortic infusion 30 min prior (1200 mg/kg), N=6): 69.7 ± 19.3% of baseline
- Granulocyte Nadir [6, 8]: 36.6 ± 17.0% of baseline
- Platelet Nadir [6, 8]: 26.8 ± 9.3% of baseline
- White Cell Nadir ([6]; Table 7, no BSO, aortic infusion post chemo, N=6): 25.9 ± 4.9% of baseline
- Granulocyte Nadir [6, 9]: 93.5 ± 28.1% of baseline
- Platelet Nadir [6, 9]: 53.3 ± 12.7% of baseline
- White Cell Nadir ([6]; Table 7, no BSO, i.v. 30 min prior, N=8): 51.4 ± 9.4% of baseline
- Granulocyte Nadir [6, 10]: 57.9 ± 8.8* percent of baseline
- Platelet Nadir [6, 10]: 36.8 ± 10.4% of baseline
- White Cell Nadir ([6]; Table 7, no BSO, i.v. post chemo, N=6): 46.0 ± 6.5* percent of baseline
- Platelet Nadir ([6]; Table 8, BSO pretreatment, aortic infusion 30 min prior): 23.1 ± 6.2% of baseline
- White Cell Nadir ([6]; Table 8, BSO pretreatment, aortic infusion 30 min prior, N=9): 20.1 ± 2.7% of baseline
- Granulocyte Nadir [6, 11]: 19.8 ± 14.7% of baseline
- Platelet Nadir [6, 11]: 11.7 ± 3.5% of baseline
- White Cell Nadir ([6]; Table 8, BSO pretreatment, aortic infusion post chemo, N=7): 13.9 ± 4.2% of baseline
- mortality and toxicity ([7]; 1200 mg/kg by aortic infusion 30 minutes prior to chemotherapy, without BSO, 12 animals): no mortality nor any evidence of toxicity
- bone marrow protection ([7]; 140–800 mg/kg i.v. immediately after chemotherapy, n=4): no detectable bone marrow protection
- toxic doses ([7]; dose escalation, n=3): above 1200 mg/kg
- mortality by route of administration ([7]; i.v. versus aortic infusion, Kaplan-Meier, P=0.0014): i.v. administration significantly more toxic than aortic infusion
- toxicity ([7]; rat, in vivo, 1200 mg/kg): no toxicity
